Measurements published in patent publication US7396842B2, “Five-membered cyclic compounds” (Dianippon Sumitomo Pharma Co., Ltd., priority 2002, dated 2008).

Molecular target: T1, SMBS on rat lung membranes (Rattus norvegicus, UniProt A0A8I6A822)
T1 construct: from tissue; host or cells: rat lung membranes (SD male rats)
Experiment: Receptor binding of the compound in rat lung membranes ([125I]-iodo-cyanopindolol ligand binding assay; Experiments 1 and 4)
Conditions: Table 37; compound concentration 30 μM; [125I]-iodo-cyanopindolol, rat lung membranes; Experiment 1; read-out: Binding Activity (30 μM)
Experimental: Evaluation Test on Receptor Binding of the Compound in Rat Lung Membranes:
This experiment was carried out according to the method disclosed in Sugasawa et al., (Sugasawa, T. et al., J. Biol. Chem., 272, 21244-21252(1997)).
Preparation of Rat Lung Membranes
The air tube and blood vessels were removed from the lung excised from SD male rats (7-weeks old when used, purchased from Charles River Japan, Inc.), and the lung was chopped, and washed with ice-cold tris-saline buffer (10 mM Tris-HCl, 154 mM sodium chloride, pH 7.4). The lung was homogenized by PHYSCOTRON (maximum speed: 1 minute) in a buffer for homogenization (tris-saline buffer containing 1 mM ethylenediaminetetraacetate (EDTA), 1 mM 4-(2-aminoethyl)-benzenesulfonyl fluoride (AEBSF), 5 μg/ml aprotinin, 5 μg/ml leupeptin) under ice-cooling. The mixture was centrifuged at a low speed (1500×g, 20 minutes, 4° C.), and the supernatant was super-centrifuged (100000×g, 20 minutes, 4° C.). The pellets thus obtained were suspended in tris-saline buffer, and kept at −80° C. The concentration of protein was measured by a Protein Assay Kit manufactured by Bio-Rad using bovine serum albumin (BSA) as standard.
To each well of a protein-non-adsorbent round-bottom 96-well assay plate (purchased from IWAKI GLASS CO., LTD.) was added tris-saline buffer (200 μl) containing 1 nM [^125I]-iodo-cyanopindolol (purchased from Amarsham), 10 μM serotonin, 20 μM dl-propranol, 10 μM phentoramine, 1.1 mM ascorbic acid and 100 μg lung membranes, and the mixture was mixed well by pipetting, and the plate was incubated at 37° C. for 30 minutes. Test compounds were dissolved in 100% dimethylsulfoxide, and added to the plate in an amount of 2 μl (final concentration of DMSO: 1%). In order to obtain non-specific binding, L-threo-3-(3,4-dihydroxyphenyl)-N-[3-(4-fluorophenyl)propyl]-serinepyrrolidinamide was added at a final concentration of 100 μM instead of test compound. During this period, 0.3% polyethyleneimine (PEI)/tris-saline buffer (100 μl) was added to a multiscreen plate (96-well B-glassfiber, milipore Cat. No. MAFB NOB10) and the plate was incubated for more than 30 minutes. The plate was washed by vacuum filtration (by adding ice-cold tris-saline buffer (200 μl) and then vacuum filtration), and the reaction solution on the 96-well assay plate was washed by vacuum filtration onto the multiscreen plate for four times. The B-glassfiber paper filter at the bottom of the multiscreen plate was punched out, and the γ-ray amount of [^125I]-iodo-cyanopindolol being trapped onto the paper filter was measured as binding amount. The binding amount in the presence of DMSO (final concentration: 1%) was regarded as total binding, and the binding in the presence of L-threo-3-(3,4-dihydroxyphenyl) -N-[3-(4-fluorophenyl)-propyl]serinepyrrolidinamide was regarded as non-specific binding. The value which is calculated by subtracting non-specific binding from total binding is specific binding. The binding activity of the compound can be calculated by the following equation, and expressed in a ratio of inhibiting the specific binding of [^125I]-iodo-cyanopindorol to SMBS on rat lung membranes.
In the same manner to in Experiment 1, the receptor binding assay was carried out on the present compounds by using the rat lung membranes.

T1 sequence (A0A8I6A822 27-587): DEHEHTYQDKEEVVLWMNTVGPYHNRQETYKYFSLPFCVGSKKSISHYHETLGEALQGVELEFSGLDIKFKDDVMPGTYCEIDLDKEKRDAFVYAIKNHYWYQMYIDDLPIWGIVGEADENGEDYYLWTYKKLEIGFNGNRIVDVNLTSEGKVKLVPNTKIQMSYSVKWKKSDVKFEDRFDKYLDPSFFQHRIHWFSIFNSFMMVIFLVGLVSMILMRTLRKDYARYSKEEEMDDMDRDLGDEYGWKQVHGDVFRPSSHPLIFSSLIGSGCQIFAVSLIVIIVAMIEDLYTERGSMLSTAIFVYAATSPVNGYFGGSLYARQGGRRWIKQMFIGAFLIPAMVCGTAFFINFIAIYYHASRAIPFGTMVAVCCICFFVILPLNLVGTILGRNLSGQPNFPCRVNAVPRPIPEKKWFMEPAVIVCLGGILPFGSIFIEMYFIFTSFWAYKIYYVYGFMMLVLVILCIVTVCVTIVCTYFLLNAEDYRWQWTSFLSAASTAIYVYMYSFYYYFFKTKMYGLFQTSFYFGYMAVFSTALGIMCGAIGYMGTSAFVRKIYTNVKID

| inhibition at 30 µM [%] | Compound |
| --- | --- |
| 98.1 | NCCCn1c(-c2ccc(-c3ccccc3)cc2)csc1=Nc1ccccc1 [Example 11, N-[3-(3-Aminopropyl)-4-(1,1′-biphenyl-4-yl)thiazol-2(3H)-ylidene]aniline] |

Same assay, conditions: Table 39; compound concentration 30 μM; [125I]-iodo-cyanopindolol, rat lung membranes; Experiment 1; read-out: Binding Activity (30 μM)

| inhibition at 30 µM [%] | Compound |
| --- | --- |
| 89.7 | CC(=O)NCCCn1c(-c2ccc(Br)cc2)csc1=Nc1ccccc1 [Example 153, N-{3-[4-(4-Bromophenyl)-2-phenyliminothiazol-3(2H)-yl]propyl}-acetamide] |
| 75.2 | COC(=O)NCCCn1c(-c2ccc(OC)cc2)csc1=Nc1ccccc1 [Example 176, Methyl 3-[4-(4-methoxyphenyl)-2-(phenylimino)thiazol-3(2H)-yl]propyl-carbamate] |

| Compound | inhibition at 30 µM [%] |
| --- | --- |
| NCCCn1c(-c2ccc(C(=O)O)cc2)csc1=Nc1ccccc1 [Example 185, 4-[3-(3-Aminopropyl)-2-(phenylimino)-2,3-dihydrothiazol-4-yl]-benzoic acid] | 13.9 |

Same assay, conditions: Table 42; concentration tested 30 μM; rat lung membranes; Experiment 4; read-out: Binding Activity (30 μM)

| inhibition at 30 µM [%] | Compound |
| --- | --- |
| 96 | CN(C)CC(=O)NCCCn1c(-c2ccc(N3CCOCC3)cc2)cs/c1=N\c1ccc(F)cc1 [Example 245] |
| 86 | O=C(NCCCn1c(-c2ccc(N3CCOCC3)cc2)csc1=Nc1ccc(F)cc1)c1ccccc1 [Example 222, N-{3-[2-[(4-Fluorophenyl)imino]-4-[4-(morpholino)phenyl]thiazol-3(2H)-yl]propyl}benzamide] |
| 80 | O=C(COc1ccccc1)NCCCn1c(-c2ccc(N3CCOCC3)cc2)cs/c1=N\c1ccc(F)cc1 [Example 246] |
| 101 | CCNC(=O)NCCCn1c(-c2ccc(N3CCOCC3)cc2)cs/c1=N\c1ccc(OC)cn1 [Example 298] |
| 98 | O=C(NCCCn1c(-c2ccc(N3CCOCC3)cc2)cs/c1=N\c1ccc(F)cc1)NCc1ccccc1 [Example 290] |

Same assay, conditions: Table 43; concentration tested 30 μM; rat lung membranes; Experiment 4; read-out: Binding Activity (30 μM)

| inhibition at 30 µM [%] | Compound |
| --- | --- |
| 100 | CN(C)CCNC(=O)NCCCn1c(-c2ccc(N3CCOCC3)cc2)csc1=Nc1ccc(F)cc1 [Example 349, N-[2-(Dimethylamino)ethyl]-N′-{3-[2-[(4-fluorophenyl)imino]-4-[4-(morpholino)phenyl]thiazol-3(2H)-yl]propyl}urea] |
| 56 | CN(C)C(=O)CNCCCn1c(-c2ccc(N3CCOCC3)cc2)cs/c1=N\c1ccc(F)cc1 [Example 342] |
| 107 | CCN(CC)C(=O)CNCCCn1c(-c2ccc(N3CCOCC3)cc2)cs/c1=N\c1ccc(F)cc1 [Example 343] |
| 118 | COCCNCCCn1c(-c2ccc(F)cc2)cs/c1=N\Cc1ccc(Cl)cc1OC [Example 411, 3-[2-[(4-Chloro-2-methoxybenzyl)imino]-4-(4-fluorophenyl)-1,3-thiazol-3(2H)-yl]-(2-methoxyethyl)-1-propanamine] |
| 112 | CCNC(=S)NCCCn1c(-c2ccc(N3CCOCC3)cc2)cs/c1=N\c1ccc(F)cc1 [Example 312] |

Same assay, conditions: Table 44; concentration tested 30 μM; rat lung membranes; Experiment 4; read-out: Binding Activity (30 μM)

| inhibition at 30 µM [%] | Compound |
| --- | --- |
| 109 | CN(C)C(=O)NCCCn1c(-c2ccc(OC(F)(F)F)cc2)cs/c1=N\Cc1ccc(Cl)cc1 [Example 404] |
| 99 | CCOC(=O)NCCCn1c(-c2ccc(OC(F)(F)F)cc2)cs/c1=N\C(=O)c1ccc(OC)cc1OC [Example 444] |
| 106 | COc1ccc(C(=O)/N=c2\scc(-c3ccc(OC(F)(F)F)cc3)n2CCCN)c(OC)c1 [Example 437] |
| 89 | CCCC(=O)NCCCn1c(-c2ccc(OC(F)(F)F)cc2)cs/c1=N\C(=O)c1ccc(OC)cc1OC [Example 447] |
| 38 | CC(=O)NCCCn1c(-c2ccc(OC(F)(F)F)cc2)cs/c1=N\C(=O)CCc1ccccc1 [Example 454] |

Same assay, conditions: ratio of inhibiting the specific binding of [125I]-iodo-cyanopindolol; test concentration 30 μM; rat lung membranes; read-out: Binding Activity (30 μM)

| inhibition at 30 µM [%] | Compound |
| --- | --- |
| 102 | COc1ccc(C(=O)/N=c2\scc(-c3ccc(OC(F)(F)F)cc3)n2CCCNC(=O)N(C)C)c(OC)c1 [Example 508] |
| 67 | CCS(=O)(=O)NCCCn1c(-c2ccc(OC(F)(F)F)cc2)cs/c1=N\C(=O)c1ccc(OC)cc1OC [Example 536] |
| 80 | CCNC(=O)NCCCn1c(-c2ccc(F)cc2)cs/c1=N\C(=O)c1ccc(Cl)cc1OC [Example 496] |
| 32 | COc1ccc(C(=O)/N=c2\scc(-c3ccc(OC(F)(F)F)cc3)n2CCCNCC(=O)O)c(OC)c1 [Example 531] |
